{
  "source": "patent US20240139149A1",
  "about": "“THERAPEUTIC USES OF UROLITHIN DERIVATIVES” (Vandria SA, priority 2022, published 2024)",
  "key": {"[1]": {"tested_on": "human CD8+ T cells", "test": "Human T cells stimulated with αCD3/αCD28 in presence of UA", "type": "cell-based", "experimental": "(§1) Splenic murine T cells were isolated from mice aged 6-20 weeks by negative selection with EasySep mouse T cell isolation kit (Stem cell) according to the manufacturer's instructions. To monitor T cell proliferation, purified T cells were loaded with CellTrace Violet (C34557 ThermoFisher Scientific). T cell activation was initiated using αCD3/CD28 activation beads (11456D; ThermoFisher Scientific) at a ratio of 25 μl dynabeads per 0.5×106 T-cells. Cells were activated with 25-50 μM Urolithin A (Tocris) or DMSO in T cell activation Medium (RPMI (ThermoFisher Scientific) 10% FBS (South America origin), 10 mM Hepes (Sigma), 1×Non-Essential Amino Acid, 1 mM Sodium Pyruvate, 50 µM β-Mercaptoethanol, 100 U/mL penicillin, 100 μg/mL streptomycin and 2 mM Glutamax (ThermoFisher Scientific) for the indicated durations. In selected experiments, cells were stimulated in the presence of inhibitors, namely TCFli (ICG-001; SelleckChem; […]) and PGC-lai (SR-18292, Sigma-Aldrich; […]). For subsequent analysis, activating beads were magnetically removed prior antibody staining. For human T cells, peripheral blood mononuclear cells were purified with a Ficoll-Paque (GE healthcare) gradient. T cells were enriched with EasySep Human T Cell Isolation Kit (StemCell) and activated with dynabead Human T-Activator CD3/CD28 for T Cell Expansion and Activation Kit (11131D; ThermoFisher Scientific), similar to murine T cell stimulation. When the subsequent activation and expansion of CAR T cells was studied, plates were coated with 1 μg/mL anti-human CD3 (αCD3; clone OKT3) and thawed PBMC were cultivated with […] anti-human CD28 (αCD28; 15E8, both Miltenyi Biotec) containing media for three days. (NutriT media (4Cell® Nutri-T media (Sartorius) containing 0.5% penicillin/streptomycin) supplemented with IL-7 (25 U/mL) and IL-15 […] (all Miltenyi Biotec)).\nTumors were minced and digested with Tumor & Tissue Dissociation Reagent (BD Horizon) for 30 min. The remaining organ pieces were filtered through a 70 µm cell strainer. Cells were then washed with PBS 1% BSA and 2 mM EDTA. […]"}, "[2]": {"tested_on": "splenic murine T cells", "test": "Murine T cells stimulated with αCD3/αCD28 in presence of UA", "type": "cell-based", "experimental": "as §1\nTumors were minced and digested with Tumor & Tissue Dissociation Reagent (BD Horizon) for 30 min. The remaining organ pieces were filtered through a 70 µm cell strainer. Cells were then washed with PBS 1% BSA and 2 mM EDTA. Immune cells were enriched on a 30%/40%/75% Percoll gradient after a 1700 rpm 17 min centrifugation. Then, tumor immune filtrates or activated T cells were stained with Fixable Viability Dye-eF780 (65-0865-14; eBioscience), αCD45-FITC (30-F11; 11-0451-85; eBioscience), αCD11b-BV650 (M1/70; 56340; BD) α-CD11c-BV785 (HL3; 563735; BD), aLy6G-BV605 (53-6.7; 563005; BD), aLy6C-AF700 (HK1.4; 128024; Biolegend), aF4/80-PE (BM8; 12-4801-82, eBioscience), aPD-L1-PECy7 (MIH5; 25-5982-80, eBioscience); or with Fixable Viability Dye-eF780 (ebioscience), αCD45-BV786 (30-F11; 564225; BD), αCD4-BUV496 (GK1.5; 564667; BD), αCD8-BV605 (100744; Biolegend), aPD1-APC (J43; 17-9985-82; eBioscience), aTIM-3-PECy7 (RMT3-23; 119715; Biolegend), aCTLA4-PE (UC10-4B9; 106305; Biolegend) and aLag3-BV421 (C9B7W; 125221, Biolegend); or with Fixable Viability Dye-eF780 (eBioscience), αCD4-FITC (H129.19; 553650; BD), αCD8-APC (53-6.7; 17-0081-83; eBioscience), αCD44-AF400 (IM7; 103026; Biolegend), αCD62L-BV785 (MEL-14; 104440; Biolegend), αSca-1-PerCP-Cy5.5 (D7; 45-5981-82; eBioscience), αCD95-PE (Jo2; 554258; BD); or with Fixable Viability Dye-eF780 (eBioscience), αCD8-BV650 (53-6.7; 563234; BD), αCD4-BUV496 (GK1.5; 564667; BD), αCD127-APC (A7R34; 17-1271-82; eBioscience), αCD95-FITC (SA367H8;152605; Biolegend), αCD44-AF400 (IM7; 103026; Biolegend), αCD62L-BV785 (MEL-14; 104440; Biolegend), αSca-1-PerCP-Cy5.5 (D7; 45-5981-82; eBioscience) followed by intracellular staining of aTCF1-PE (S33-966; 564217; BD), or PGC-1α (sc-518025; D-5; santa cruz), or aCyclinD1 (MA5-28534, DCS-6; Invitrogen) with transcription factor buffer set kit (BD Biosciences). To study cytokine expression, tumor immune infiltrates were stimulated ex vivo with 20 ng/mL PMA and […] Ionomycin (Sigma) for 3 h in T cell activation medium with Brefeldin A (Biolegend). […]"}},
  "note": "Entries after “also recorded” stand apart in the source; their conditions may differ.",
  "data": [
    {"smiles": "O=c1oc2cc(O)ccc2c2ccc(O)cc12", "note": "[UA, Urolithin A]", "values": [
      {"measurement": "TCF1 expression in human CD8+ T cells", "setting": "[1]; after 48 hours", "value": "increased"},
      {"measurement": "mitochondrial membrane potential of human CD8+ T cells", "setting": "[1]; after 48 hours", "value": "decreased"},
      {"measurement": "frequency of human TSCM cells (CD45RA+CCR7HiCD62L+CD95+CD8+)", "setting": "[1]; five out of five individual donors, 48 h", "value": "increased the frequency"},
      {"measurement": "lysosome formation in CD8+ T cells", "setting": "[2]; 6 h, UA 50 μM", "value": "enhanced"},
      {"measurement": "phosphorylation of Stat1", "setting": "[2]; 6 h, UA 50 μM vs vehicle", "value": "equal phosphorylation"},
      {"measurement": "Parkin protein expression", "setting": "[2]; 24 h, UA 50 μM", "value": "stabilized"},
      {"measurement": "PGC-1α in Pink1−/− or Pgam5−/− CD8+ T cells", "setting": "[2]; 48 h, UA 50 μM", "value": "failed to enhance"},
      {"measurement": "cyclin D1 expression", "setting": "[2]; 48 h, UA 50 μM", "value": "reduced"},
      {"measurement": "CD8+ T cell division / proliferation", "setting": "[2]; 72 h", "value": "restricted; also recorded: restricts T cell proliferation"},
      {"measurement": "central memory cells (TCM)", "setting": "[2]; CD8+ T cells, αCD3/αCD28", "value": "reduction"},
      {"measurement": "frequency of effector memory cells (TEM)", "setting": "[2]; CD8+ T cells, αCD3/αCD28", "value": "remained unaltered"},
      {"measurement": "naïve CD44loCD62Lhi T cells", "setting": "[2]; CD8+ T cells, αCD3/αCD28", "value": "significant increase"},
      {"measurement": "number of CD44-CD62L+Sca1hi TSCM", "setting": "[2]; CD8+ T cells, αCD3/αCD28, up to 72 hours", "value": "significantly increased"},
      {"measurement": "UA-dependent expansion of CD44-CD62L+Sca1Hi TSCM cells in Pgam5−/− T cells", "setting": "[2]; Pgam5−/− CD8+ T cells", "value": "blocked"},
      {"measurement": "TSCM phenotype in Pink1−/− CD8+ T cells", "setting": "[2]; Pink1−/− CD8+ T cells, presence of UA", "value": "failed to exhibit a TSCM phenotype"},
      {"measurement": "UA-induced lysosome formation and decrease in mitochondrial content in Pink1−/− T cells", "setting": "[2]; Pink1−/− T cells", "value": "prevented"},
      {"measurement": "expression of genes that code for immune checkpoints and effector molecules", "setting": "[2]; RNA sequencing, 48 hours", "value": "reduced"},
      {"measurement": "β-catenin phosphorylation", "setting": "[2]; after 6 hours", "value": "marked decrease"},
      {"measurement": "mitochondrial content in CD8+ T cells", "setting": "[2]; after 24 hours", "value": "loss of mitochondrial content in a dose-dependent manner"},
      {"measurement": "PGC-1α expression", "setting": "[2]; prolonged UA administration in vitro (48 h, 50 μM)", "value": "marked upregulation"},
      {"measurement": "transcription of Wnt target genes", "setting": "[2]; qPCR, 24 h after stimulation", "value": "increased transcription"},
      {"measurement": "Pgam5 localization", "setting": "[2]; sub-cellular fractionation immunoblot and immunofluorescence, 6 h", "value": "rapidly released into the cytoplasma"},
      {"measurement": "T cell death in vitro", "setting": "[2]; various concentrations of UA", "value": "dose-dependent T cell death"},
      {"measurement": "mitochondrial membrane potential in CD8+ T cells", "setting": "[2]; within six hours after UA administration", "value": "reduction"},
      {"measurement": "TSCM formation in CD4+ cells", "setting": "[2]; αCD3/αCD28", "value": "did not promote enhanced TSCM formation"},
      {"measurement": "differentiation into effector T cells (Granzyme B, IFNγ)", "setting": "[2]; αCD3/αCD28 beads, 48 h", "value": "blocked"},
      {"measurement": "Atg5, Atg7, p62, Lamp2 and Pink1 gene expression", "setting": "[2]; αCD3/αCD28 stimulated T cells, 24 h, UA 50 μM", "value": "significant upregulation"}
    ]}
  ]
}
